Tests used:
[1] = test system: STZ-diabetic animals; test: motor and sensory nerve conduction velocity in STZ-diabetic animals; type: in vivo, rats; conditions: 10 mg/kg daily
Method: (§1) Male Sprague-Dawley rats (200-225 g) were rendered diabetic by intravenous administration of streptozotocin (STZ, 70 mg/kg in phosphate buffered saline). Diabetic animals were divided into five groups: one group receiving Compound 2 (10 mg/kg or 1 mg/kg), Compound 1 (10 mg/kg or 1 mg/kg) or vehicle. Another group of animals (non-STZ treated) served as non-diabetic controls. Drug/vehicle treatment was started in diabetic animals 45 days post-STZ administration. STZ-induced diabetic rats were tested for sensitivity to a heat source as soon as blood glucose levels rose to 320 mg/dl or above (30 days post STZ). The rats were then acclimated to the Hargreaves apparatus and thermal nociception was monitored using an infrared heat source directed into the […] surface of the hindpaw, and the time taken for the animal to remove its paw noted to the nearest 0.1 seconds (see Hargreaves et al. 1998 for detailed method). The intensity of the beam source was adjusted such that the mean latency for control animals (non-STZ treated) was approximately 10 seconds. Each animal was tested 8 times and the mean difference score (between mean non-diabetic control latency and mean diabetic latency) are graphically presented in FIGS. 19A and 19B.
Motor and sensory nerve conduction velocity was also measured in STZ-diabetic animals after 4, 8 and 12 weeks of treatment (see De Koning and Gispen 1987 for detailed method). Briefly, stimulating needle electrodes were inserted close to the sciatic and tibial nerves with recording electrodes being placed subcutaneously over the distal foot muscles, in anesthetized rats.

[2] = test system: BB/W diabetic rats; test: progression of neuropathic pain in BB/W diabetic rats, thermal nociception; type: in vivo, Male BB/W rats; conditions: 10 mg/kg i.p. daily; starting after 4 weeks, through six months
Description: (§2) Male BB/W rats (BR1, Mass) spontaneously develop a cell mediated autoimmune destruction of pancreatic B cells, resulting in onset of insulin-dependent (Type I) diabetes (Guberski 1994). […] This renders them valuable for experimental trials of new compounds for future treatments of this major disorder. In the present study, Compound 1 and Compound 2 were examined for their ability to alter the progression of diabetic neuropathy. The rats received daily injection of Compound 1 or Compound 2 (10 mg/kg i.p.) or vehicle, starting at the onset of diabetes (hyperglycemia) and up to 6 months thereafter. Another group of non-diabetic rats also receiving vehicle were tested. All animals were continuously monitored for body weight, urine volume, blood sugar and glycated haemoglobin. In the first month of the study, all animals were tested for thermal nociception in a Hargreaves apparatus, weekly. After the first month this was done biweekly and then monthly. The testing consists of directing an infrared heat source onto the […] surface of the rat hindpaw and noting the time taken for the animal to remove its paw (for detailed method see Hargreaves et al. 1998). Each animal was tested 8 times and the mean withdrawal latency noted.

[3] = test system: streptozotocin (STZ)-induced peripheral diabetic neuropathy; test: in vivo STZ-induced peripheral diabetic neuropathy model, plantar test; design: species or system Male Sprague-Dawley rats; conditions: 50 mg/kg i.p. once per day, following 5 days of dosing
Method: NAALADase inhibition in an in vivo streptozotocin (STZ)-induced peripheral diabetic neuropathy model was studied. Male Sprague-Dawley rats weighing 200-250 g were rendered diabetic by intravenous injection of 60 mg/kg STZ into the tail vein. Plasma glucose levels were determined 3 weeks after STZ administration. Only STZ-animals with plasma glucose levels>300 mg/dL (17 mM) were used in the study. Thermal pain threshold and withdrawal latency were used to assess the status of the small dorsal root ganglion (DRG) sensory neurons. Pain was monitored using the plantar test (Hargreaves' Method) using a Basile Plantar apparatus built by Ugo Basil, Vaarese, Italy.
At two months following the STZ administration, the diabetic animals were hyperalgesic as compared to non-diabetic controls as determined by their difference in withdrawal latency. At this time, the rats were administered either the NAALADase inhibitor Compound 2 (50 mg/kg) or vehicle intraperitoneally once per day for 20 days. Thermal pain responses were measured at days 3, 5, 12 and 19 post-dosing. […] This difference was maintained throughout the observation period.

[4] = test system: PCP-treated rats; test: in vivo assay on schizophrenia (PCP model); conditions: 50 mg/kg i.p. before PCP (5 mg/kg)
Method: Rats treated with PCP develop symptoms, such as frantic running and incessant head-turning, that parallel psychotic symptoms in humans. Thus, to examine the effects of NAALADase inhibition on schizophrenia, rats were treated intraperitoneally with Compound 1 (50 mg/kg), Compound 2 (50 mg/kg) or a vehicle (H2O) before they received PCP (5 mg/kg). Head rolling scores were measured for over 2 hours following PCP injection.

[5] = test system: BB/W diabetic rats; test: nerve conduction velocity in BB/W diabetic rats; type: in vivo, Male BB/W rats; conditions: 10 mg/kg daily; starting at 8 weeks, through six months
Description: as §2, with “Each animal was tested 8 times and the mean withdrawal latency noted.” left out
Nerve conduction velocity was also measured every two weeks through the first eight weeks of treatment and every month thereafter through to the six months of treatment (see De Koning et al. 1987 for method details). […]

[6] = test system: Dorsal root ganglia-Schwann cell co-cultures; test: in vitro myelination in dorsal root ganglia-Schwann cell co-cultures; type: cell-based
Description: The inventors hypothesized that NAALADase may play a role in signaling myelin formation and inhibition of NAALADase may facilitate myelination. To test this hypothesis, the inventors examined the effects of several NAALADase inhibitors in a well established in vitro model system of myelination. Dorsal root ganglia-Schwann cell co-cultures were established as previously described (Einheber et al., J. Cell. Biol., Vol. 123, p. 1223). Following 7 days in co-culture, myelination was initiated following the addition of serum and ascorbic acid with various doses of NAALADase inhibitors (1 nM to 10 μM) or progesterone (20 nM; positive control). The extent of myelination was examined between days 14-21 using immunocytochemical staining for myelin basic protein (MBP), a known myelin marker.

[7] = test system: STZ-induced diabetic rats; test: in vivo assay on neuropathic pain in STZ-diabetic rats (Hargreaves); design: species or system Male Sprague-Dawley rats; conditions: 10 mg/kg i.p. daily, started 45 days post-STZ
Method: as §1

[8] = test system: acetic acid (0.6%) induced writhing; test: acetic acid model of pain (writhing); type: in vivo, mice; conditions: pretreated
Description: One source of neuronal glutamate is thought to derive from the abundant neuropeptide NAAG which is hydrolyzed by NAALADase to liberate free glutamate. The inventors hypothesized that inhibition of NAALADase could limit pain by preventing this source of glutamate. To test this hypothesis, the inventors examined the possible antinocipetive effects of several NAALADase inhibitors in the formalin-, acetic acid- and chronic constrictive injury (CCI; “Bennett model”) models of pain. […] On day 7, 5% formalin was injected into the dorsum of the rat's hindpaw.

## O=C(O)CCC(CP(=O)(O)Cc1c(F)c(F)c(F)c(F)c1F)C(=O)O (stereo not shown) [Compound 2, 2-[[(2,3,4,5,6-pentafluorobenzyl)hydroxyphosphinyl]methyl]-pentanedioic acid]
[1]; after 8 weeks
  sensory nerve conduction velocity: significant improvement
[1]; after 12 weeks
  motor nerve conduction velocity: significant improvement
[2]
  withdrawal latencies vs. diabetic vehicle-treated rats: longer withdrawal latencies
[3]
  withdrawal latency vs. vehicle animals: significant increase
[4]
  locomotor-activating effects of PCP (head rolling scores): significantly reduced
[5]
  nerve conduction deficits vs. diabetic controls receiving vehicle: significantly less severe nerve conduction deficits
[6]; 1 nM, two week treatment
  immunostaining of MBP: significant increase
[6]; high dose, 1 μM
  extent of myelination vs. maximal doses of ascorbic acid and progesterone: greater extent of myelination
[7]
  hyperalgesic response in diabetic rats: completely reversed
[8]
  acetic acid (0.6%) induced writhing vs. vehicle control: significantly attenuated
